Results: PubChem BioAssay AID2060896 (Molecular Pharmacology Branch, DTP, NCI, 2025)

Test system: 941728-121-R-J1-PDC complex spheroid viability
Test: Anticancer human tumor 941728-121-R-J1-PDC patient-derived lung adenocarcinoma cell line growth inhibition [RAS]
Conditions: for IC50: curve of first compound; for viability, T/C: stronger effect = lower value; active means viability on the fitted dose curve at most 10% of control; inactive means the rest
Procedure, shortened: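 Multi-cell-type spheroids: tumor cells plus HUVEC endothelial cells and mesenchymal stem cells. RAS-pathway inhibitors were combined with targeted agents, each dosed in half-log steps down from clinical Cmax, or from 10 microM when Cmax was unknown.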

[1] = second compound 0.000949 µM, first compound 0.00316 µM
[2] = second compound 0.000949 µM, first compound 0.01 µM
[3] = second compound 0.000949 µM, first compound 0.0316 µM
[4] = second compound 0.000949 µM, first compound 0.1 µM
[5] = second compound 0.000949 µM, first compound 0.316 µM
[6] = second compound 0.000949 µM, first compound 1 µM
[7] = second compound 0.003 µM, first compound 0.00316 µM
[8] = second compound 0.003 µM, first compound 0.01 µM
[9] = second compound 0.003 µM, first compound 0.0316 µM
[10] = second compound 0.003 µM, first compound 0.1 µM
[11] = second compound 0.003 µM, first compound 0.316 µM
[12] = second compound 0.003 µM, first compound 1 µM
[13] = second compound 0.00949 µM, first compound 0.00316 µM
[14] = second compound 0.00949 µM, first compound 0.01 µM
[15] = second compound 0.00949 µM, first compound 0.0316 µM
[16] = second compound 0.00949 µM, first compound 0.1 µM
[17] = second compound 0.00949 µM, first compound 0.316 µM
[18] = second compound 0.00949 µM, first compound 1 µM
[19] = second compound 0.03 µM, first compound 0.00316 µM
[20] = second compound 0.03 µM, first compound 0.01 µM
[21] = second compound 0.03 µM, first compound 0.0316 µM
[22] = second compound 0.03 µM, first compound 0.1 µM
[23] = second compound 0.03 µM, first compound 0.316 µM
[24] = second compound 0.03 µM, first compound 1 µM
[25] = second compound 0.0949 µM, first compound 0.00316 µM
[26] = second compound 0.0949 µM, first compound 0.01 µM
[27] = second compound 0.0949 µM, first compound 0.0316 µM
[28] = second compound 0.0949 µM, first compound 0.1 µM
[29] = second compound 0.0949 µM, first compound 0.316 µM
[30] = second compound 0.0949 µM, first compound 1 µM
[31] = second compound 0.3 µM, first compound 0.00316 µM
[32] = second compound 0.3 µM, first compound 0.01 µM
[33] = second compound 0.3 µM, first compound 0.0316 µM
[34] = second compound 0.3 µM, first compound 0.1 µM
[35] = second compound 0.3 µM, first compound 0.316 µM
[36] = second compound 0.3 µM, first compound 1 µM
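Further: spheroids exposed to compounds for 7 days before readout.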
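Wherever viability, T/C is given: 100% = DMSO vehicle control viability.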

C=CC(=O)N1CCN(c2nc(OCC3CCCN3C)nc3c(F)c(-c4nc(N)cc(C)c4C(F)(F)F)c(Cl)cc23)C(C)C1 (stereo not drawn) + CCn1c(-c2cc(N3CCN(C)CC3)cnc2C(C)OC)c2c3cc(ccc31)-c1csc(n1)CC(NC(=O)C1CC1C)C(=O)N1CCCC(N1)C(=O)OCC(C)(C)C2
inactive: viability, T/C [1] 20.1% | viability, T/C [2] 19.7% | viability, T/C [3] 14.8% | viability, T/C [4] 18.7% | viability, T/C [5] 20.2% | viability, T/C [6] 16.2% | viability, T/C [7] 16.9% | viability, T/C [8] 15.7% | viability, T/C [9] 14.5% | viability, T/C [10] 17.2% | viability, T/C [11] 19.6% | viability, T/C [12] 14.6% | viability, T/C [13] 17.3% | viability, T/C [14] 16.4% | viability, T/C [15] 17.7% | viability, T/C [16] 18% | viability, T/C [17] 15.6% | viability, T/C [18] 14.8% | viability, T/C [19] 17.7% | viability, T/C [20] 18.3% | viability, T/C [21] 17.5% | viability, T/C [22] 16.3% | viability, T/C [23] 14% | viability, T/C [24] 17.8% | viability, T/C [25] 15.6% | viability, T/C [26] 16.7% | viability, T/C [27] 16.5% | viability, T/C [28] 17.7% | viability, T/C [29] 14.9% | viability, T/C [30] 19.4% | viability, T/C [31] 17% | viability, T/C [32] 17.2% | viability, T/C [33] 17.1% | viability, T/C [34] 14.5% | viability, T/C [35] 18.5% | viability, T/C [36] 18.2%
< 3.16 nM: IC50 (second compound 0.000949 µM) | IC50 (second compound 0.003 µM) | IC50 (second compound 0.00949 µM) | IC50 (second compound 0.03 µM) | IC50 (second compound 0.0949 µM) | IC50 (second compound 0.3 µM)

CC1(C)CCC(Nc2ncc(C(F)(F)F)c(-c3c[nH]c4c(P(C)(C)=O)c(C#N)ccc34)n2)CN1 (stereo not drawn) + CCn1c(-c2cc(N3CCN(C)CC3)cnc2C(C)OC)c2c3cc(ccc31)-c1csc(n1)CC(NC(=O)C1CC1C)C(=O)N1CCCC(N1)C(=O)OCC(C)(C)C2
< 0.949 nM: IC50 (second compound 0.000949 µM) | IC50 (second compound 0.003 µM) | IC50 (second compound 0.00949 µM) | IC50 (second compound 0.03 µM) | IC50 (second compound 0.0949 µM) | IC50 (second compound 0.3 µM)
active: viability, T/C (second compound 0.3 µM, first compound 0.000949 µM) 9.86% | viability, T/C (second compound 0.3 µM, first compound 0.003 µM) 9.92% | viability, T/C (second compound 0.3 µM, first compound 0.00949 µM) 9.46% | viability, T/C (second compound 0.3 µM, first compound 0.03 µM) 8.06% | viability, T/C (second compound 0.3 µM, first compound 0.0949 µM) 9.53% | viability, T/C (second compound 0.3 µM, first compound 0.3 µM) 10.4%
inactive: viability, T/C (second compound 0.000949 µM, first compound 0.000949 µM) 26.8% | viability, T/C (second compound 0.000949 µM, first compound 0.003 µM) 28.2% | viability, T/C (second compound 0.000949 µM, first compound 0.00949 µM) 23.5% | viability, T/C (second compound 0.000949 µM, first compound 0.03 µM) 27.3% | viability, T/C (second compound 0.000949 µM, first compound 0.0949 µM) 32.7% | viability, T/C (second compound 0.000949 µM, first compound 0.3 µM) 24.8% | viability, T/C (second compound 0.003 µM, first compound 0.000949 µM) 19.8% | viability, T/C (second compound 0.003 µM, first compound 0.003 µM) 18.5% | viability, T/C (second compound 0.003 µM, first compound 0.00949 µM) 16.6% | viability, T/C (second compound 0.003 µM, first compound 0.03 µM) 22.6% | viability, T/C (second compound 0.003 µM, first compound 0.0949 µM) 19.5% | viability, T/C (second compound 0.003 µM, first compound 0.3 µM) 17.1% | viability, T/C (second compound 0.00949 µM, first compound 0.000949 µM) 14% | viability, T/C (second compound 0.00949 µM, first compound 0.003 µM) 10.3% | viability, T/C (second compound 0.00949 µM, first compound 0.00949 µM) 11.3% | viability, T/C (second compound 0.00949 µM, first compound 0.03 µM) 14.4% | viability, T/C (second compound 0.00949 µM, first compound 0.0949 µM) 12.3% | viability, T/C (second compound 0.00949 µM, first compound 0.3 µM) 12.2% | viability, T/C (second compound 0.03 µM, first compound 0.000949 µM) 10.8% | viability, T/C (second compound 0.03 µM, first compound 0.003 µM) 9.52% | viability, T/C (second compound 0.03 µM, first compound 0.00949 µM) 9.8% | viability, T/C (second compound 0.03 µM, first compound 0.03 µM) 10.9% | viability, T/C (second compound 0.03 µM, first compound 0.0949 µM) 9.73% | viability, T/C (second compound 0.03 µM, first compound 0.3 µM) 11.7% | viability, T/C (second compound 0.0949 µM, first compound 0.000949 µM) 9.88% | viability, T/C (second compound 0.0949 µM, first compound 0.003 µM) 9.37% | viability, T/C (second compound 0.0949 µM, first compound 0.00949 µM) 10% | viability, T/C (second compound 0.0949 µM, first compound 0.03 µM) 11.1% | viability, T/C (second compound 0.0949 µM, first compound 0.0949 µM) 8.77% | viability, T/C (second compound 0.0949 µM, first compound 0.3 µM) 11.9%

C=CC(=O)Nc1cc(Nc2nccc(-c3cn(C)c4ccccc34)n2)c(OC)cc1N(C)CCN(C)C + CCn1c(-c2cccnc2C(C)OC)c2c3cc(ccc31)N1CCOC(CC(NC(=O)C(C(C)C)N(C)C(=O)C3(F)CCN(C(=O)C#CC(C)(C)N(C)C)CC3)C(=O)N3CCCC(N3)C(=O)OCC(C)(C)C2)C1
382 nM: IC50 (second compound 0.003 µM)
inactive: viability, T/C [1] 24.4% | viability, T/C [2] 22.9% | viability, T/C [3] 16.2% | viability, T/C [4] 20.1% | viability, T/C [5] 19.2% | viability, T/C [6] 12.8% | viability, T/C [7] 89.7% | viability, T/C [8] 91.4% | viability, T/C [9] 69.4% | viability, T/C [10] 69.9% | viability, T/C [11] 53.1% | viability, T/C [12] 35.4% | viability, T/C [13] 22.7% | viability, T/C [14] 18.3% | viability, T/C [15] 20.5% | viability, T/C [16] 19.2% | viability, T/C [17] 16.1% | viability, T/C [18] 12.8% | viability, T/C [19] 25.8% | viability, T/C [20] 20.8% | viability, T/C [21] 16.8% | viability, T/C [22] 16.9% | viability, T/C [23] 14.2% | viability, T/C [24] 15.5% | viability, T/C [25] 22% | viability, T/C [26] 22.4% | viability, T/C [27] 20.7% | viability, T/C [28] 16.6% | viability, T/C [29] 15.9% | viability, T/C [30] 17.2% | viability, T/C [31] 22.5% | viability, T/C [32] 21.6% | viability, T/C [33] 21.3% | viability, T/C [34] 20.1% | viability, T/C [35] 21.7% | viability, T/C [36] 21.4%
< 3.16 nM: IC50 (second compound 0.000949 µM) | IC50 (second compound 0.00949 µM) | IC50 (second compound 0.03 µM) | IC50 (second compound 0.0949 µM) | IC50 (second compound 0.3 µM)

O=C(c1ccc(F)c(F)c1Nc1ccc(I)cc1F)N1CC(O)([C@@H]2CCCCN2)C1 + CCn1c(-c2cccnc2C(C)OC)c2c3cc(ccc31)N1CCOC(CC(NC(=O)C(C(C)C)N(C)C(=O)C3(F)CCN(C(=O)C#CC(C)(C)N(C)C)CC3)C(=O)N3CCCC(N3)C(=O)OCC(C)(C)C2)C1
21.9 nM: IC50 (second compound 0.003 µM)
< 3.16 nM: IC50 (second compound 0.000949 µM) | IC50 (second compound 0.00949 µM) | IC50 (second compound 0.03 µM) | IC50 (second compound 0.0949 µM) | IC50 (second compound 0.3 µM)
inactive: viability, T/C [1] 20.5% | viability, T/C [2] 18.8% | viability, T/C [3] 13.7% | viability, T/C [4] 17.1% | viability, T/C [5] 12.5% | viability, T/C [7] 94.2% | viability, T/C [8] 64.1% | viability, T/C [9] 37.4% | viability, T/C [10] 38% | viability, T/C [11] 35.4% | viability, T/C [12] 18.4% | viability, T/C [13] 18.6% | viability, T/C [14] 15.4% | viability, T/C [15] 17% | viability, T/C [16] 14.6% | viability, T/C [17] 11.6% | viability, T/C [18] 9.5% | viability, T/C [19] 18.3% | viability, T/C [20] 17.9% | viability, T/C [21] 18.8% | viability, T/C [22] 12.8% | viability, T/C [23] 12.4% | viability, T/C [24] 12.2% | viability, T/C [25] 19.4% | viability, T/C [26] 17.1% | viability, T/C [27] 15.8% | viability, T/C [28] 13.6% | viability, T/C [29] 12.9% | viability, T/C [30] 15.1% | viability, T/C [31] 17.9% | viability, T/C [32] 20% | viability, T/C [33] 15.8% | viability, T/C [34] 15.7% | viability, T/C [35] 13.7% | viability, T/C [36] 14%
active: viability, T/C [6] 7.9%
